Laboratory results reported in PubChem BioAssay AID328 (DTP/NCI, 2004).
Values joined by “and” are separate entries in the source; they are usually repeats but may differ in a detail not shown here. Identical values can stand only once. Toxic doses and inconclusive results are not listed. Residues, ends and D or L forms follow the SMILES beside them.

Test system: BDF1 mice, P388 leukemia ip, median survival T/C
Assay: NCI In Vivo Anticancer Drug Screen. Data for tumor model P388 Leukemia (intraperitoneal) in B6D2F1 (BDF1) mice
Conditions: endpoint: median survival time, higher = longer survival
Method in brief: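 Mice carrying the transplantable tumour receive compound or vehicle. Survival is followed in each arm, and the treated measure is divided by the vehicle measure.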

[1] = dose: 100.0 mg/kg/injection, schedule: Q04DX003 (ip), vehicle: saline with Tween-80
[2] = dose: 200.0 mg/kg/injection, schedule: Q01DX009 (ip), vehicle: saline with Tween-80
[3] = dose: 12.5 mg/kg/injection, schedule: Q01DX009 (ip), vehicle: saline with Tween-80
[4] = dose: 25.0 mg/kg/injection, schedule: Q01DX009 (ip), vehicle: saline with Tween-80
[5] = dose: 50.0 mg/kg/injection, schedule: Q01DX009 (ip), vehicle: saline with Tween-80
[6] = dose: 100.0 mg/kg/injection, schedule: Q01DX009 (ip), vehicle: saline with Tween-80
[7] = dose: 100.0 mg/kg/injection, schedule: Q04DX003 (ip), vehicle: water
[8] = dose: 50.0 mg/kg/injection, schedule: Q04DX003 (ip), vehicle: saline
[9] = dose: 100.0 mg/kg/injection, schedule: Q04DX003 (ip), vehicle: saline
[10] = dose: 25.0 mg/kg/injection, schedule: Q04DX003 (ip), vehicle: saline

For `O=c1ccc2ccccc2o1`, the T/C (dose: 50.0 mg/kg/injection, schedule: Q01DX010 (ip), vehicle: saline) was 100 % of control, the T/C (dose: 100.0 mg/kg/injection, schedule: Q01DX010 (ip), vehicle: saline) was 90 % of control and the T/C (dose: 200.0 mg/kg/injection, schedule: Q01DX010 (ip), vehicle: saline) was 90 % of control. For the same compound, the T/C (dose: 400.0 mg/kg/injection, schedule: Q01DX010 (ip), vehicle: saline) was 95 % of control.
In the case of `O=c1[nH]c(C(F)(F)F)nc2c1nc1n2CCC1`, the T/C [1] is reported as 104 % of control, the T/C (dose: 200.0 mg/kg/injection, schedule: Q04DX003 (ip), vehicle: saline with Tween-80) is reported as 100 % of control and the T/C (dose: 400.0 mg/kg/injection, schedule: Q04DX003 (ip), vehicle: saline with Tween-80) is reported as 100 % of control.
For `Cc1n[nH]c2ccc([N+](=O)[O-])cc2c1=O`, the T/C [2] was 87 % of control.
`CCOC(=O)CSc1sc(C(=O)OCC)c(N)c1C#N` was tested, and the T/C [3] was 99 % of control, the T/C [4] was 99 % of control and the T/C [5] was 99 % of control.
With `NOCc1cccc(Cl)c1` the T/C (dose: 50.0 mg/kg/injection, schedule: Q04DX003 (ip), vehicle: saline with Tween-80) was 91 % of control and the T/C [1] was 91 % of control.
With `CSCC(C(N)=O)c1cc(Cl)ccc1Cl` (configuration not stated) the T/C (dose: 25.0 mg/kg/injection, schedule: Q01DX009 (ip), vehicle: water) was 97 % of control, the T/C (dose: 50.0 mg/kg/injection, schedule: Q01DX009 (ip), vehicle: water) was 103 % of control and the T/C [6] was 100 % of control. The T/C (dose: 100.0 mg/kg/injection, schedule: Q01DX009 (ip), vehicle: water) was 101 % of control, the T/C [7] was 95 % of control and the T/C (dose: 200.0 mg/kg/injection, schedule: Q04DX003 (ip), vehicle: water) was 100 % of control. For the same compound, the T/C (dose: 400.0 mg/kg/injection, schedule: Q04DX003 (ip), vehicle: water) was 100 % of control.
`O=C(/C=C/c1ccccc1)NC(CO)Cc1ccccc1` (configuration not stated) was tested, and the T/C (dose: 6.25 mg/kg/injection, schedule: Q01DX009 (ip), vehicle: saline with Tween-80) was 90 % of control, the T/C [3] was 92 % of control and the T/C [4] was 101 % of control. The T/C [6] was 100 % of control and the T/C [2] was 100 % of control.
With `COc1cc(-c2ccc(N=Nc3c(O)ccc4ccccc34)c(OC)c2)ccc1N=Nc1ccc2c(S(=O)(=O)O)cc(S(=O)(=O)O)c(N)c2c1O` the T/C (dose: 50.0 mg/kg/injection, schedule: Q01DX009 (ip), vehicle: saline) was 111 % of control, the T/C [8] was 104 % of control and the T/C [9] was 100 % of control. For the same compound, the T/C (dose: 200.0 mg/kg/injection, schedule: Q01DX009 (ip), vehicle: saline) was 105 % of control and the T/C (dose: 200.0 mg/kg/injection, schedule: Q04DX003 (ip), vehicle: saline) was 100 % of control.
In the case of `CC(N)C(=O)NC(C)C(=O)NC(C)C(=O)NC(C)C(=O)O` (configuration not stated) (H-AAAA-OH; configuration not given here), the T/C (dose: 50.0 mg/kg/injection, schedule: Q01DX005 (ip), vehicle: saline) is reported as 93 % of control, the T/C (dose: 100.0 mg/kg/injection, schedule: Q01DX005 (ip), vehicle: saline) is reported as 98 % of control and the T/C (dose: 200.0 mg/kg/injection, schedule: Q01DX005 (ip), vehicle: saline) is reported as 105 % of control.
For `O=P(O)(Oc1ccccc1)Oc1ccccc1.[Al]`, the T/C [5] was 104 % of control, the T/C [6] was 95 % of control and the T/C [2] was 95 % of control.
For `Cc1ccc2cc3c(ccc4ccccc43)c3c2c1CC3`, the T/C (dose: 7.4 mg/kg/injection, schedule: Q01DX009 (ip), vehicle: saline with Tween-80) was 117 % of control, the T/C [4] was 122 % of control and the T/C [5] was 154 % of control. For the same compound, the T/C (dose: 75.0 mg/kg/injection, schedule: Q01DX009 (ip), vehicle: saline with Tween-80) was 122 % of control, the T/C (dose: 88.0 mg/kg/injection, schedule: Q04DX003 (ip), vehicle: saline with Tween-80) was 118 % of control and the T/C [6] was 162 % of control. The T/C (dose: 132.0 mg/kg/injection, schedule: Q04DX003 (ip), vehicle: saline with Tween-80) was 118 % of control, the T/C (dose: 300.0 mg/kg/injection, schedule: Q01DX009 (ip), vehicle: saline with Tween-80) was 163 % of control and the T/C (dose: 300.0 mg/kg/injection, schedule: Q04DX003 (ip), vehicle: saline with Tween-80) was 118 % of control.
With `CCN1CCN(Cc2ccccc2)C(CCl)C1` (configuration not stated) the T/C (dose: 12.5 mg/kg/injection, schedule: Q04DX003 (ip), vehicle: Klucel (hydroxypropylcellulose) (HPC)) was 100 % of control, the T/C (dose: 25.0 mg/kg/injection, schedule: Q04DX003 (ip), vehicle: Klucel (hydroxypropylcellulose) (HPC)) was 100 % of control and the T/C (dose: 50.0 mg/kg/injection, schedule: Q04DX003 (ip), vehicle: Klucel (hydroxypropylcellulose) (HPC)) was 100 % of control.
`CC(=O)NC1=C(N2CC2C)C(=O)C(NC(C)=O)=C(N2CC2C)C1=O` (configuration not stated) was tested, and the T/C (dose: 0.62 mg/kg/injection, schedule: Q01DX009 (ip), vehicle: saline) was 119 % of control, the T/C (dose: 1.25 mg/kg/injection, schedule: Q01DX009 (ip), vehicle: saline) was 114 % of control and 115 % of control and the T/C (dose: 4.4 mg/kg/injection, schedule: Q04DX003 (ip), vehicle: saline) was 118 % of control. For the same compound, the T/C (dose: 5.0 mg/kg/injection, schedule: Q01DX009 (ip), vehicle: saline) was 233 % of control and 215 % of control, the T/C (dose: 5.56 mg/kg/injection, schedule: Q01DX009 (ip), vehicle: saline) was 159 % of control and the T/C (dose: 6.6 mg/kg/injection, schedule: Q04DX003 (ip), vehicle: saline) was 104 % of control. The T/C (dose: 8.33 mg/kg/injection, schedule: Q01DX009 (ip), vehicle: saline) was 236 % of control, the T/C (dose: 11.0 mg/kg/injection, schedule: Q04DX003 (ip), vehicle: saline) was 166 % of control and 215 % of control and the T/C (dose: 12.5 mg/kg/injection, schedule: Q01DX009 (ip), vehicle: saline) was 163 % of control. For the same compound, the T/C (dose: 15.0 mg/kg/injection, schedule: Q04DX003 (ip), vehicle: saline) was 163 % of control, the T/C (dose: 16.5 mg/kg/injection, schedule: Q04DX003 (ip), vehicle: saline) was 230 % of control and 222 % of control and the T/C (dose: 18.7 mg/kg/injection, schedule: Q01DX009 (ip), vehicle: saline) was 90 % of control. For the same compound, the T/C [10] was 255 % of control and 110 % of control, the T/C (dose: 37.5 mg/kg/injection, schedule: Q04DX003 (ip), vehicle: saline) was 183 % of control and the T/C [8] was 86 % of control and 100 % of control.
In the case of `O=C(c1ccccc1)C(Cl)C(=O)c1ccccc1`, the T/C (dose: 50.0 mg/kg/injection, schedule: Q01DX001 (ip), vehicle: saline with Tween-80) is reported as 108 % of control, the T/C (dose: 65.0 mg/kg/injection, schedule: Q01DX001 (ip), vehicle: saline with Tween-80) is reported as 120 % of control and the T/C (dose: 150.0 mg/kg/injection, schedule: Q01DX001 (ip), vehicle: saline with Tween-80) is reported as 101 % of control. For the same compound, the T/C (dose: 200.0 mg/kg/injection, schedule: Q01DX001 (ip), vehicle: saline with Tween-80) was 105 % of control.
`CC(=O)Oc1ccc(N2C(=O)C3C(C2=O)C2c4ccccc4C3C3CCCCN32)cc1` (configuration not stated) (tested in a mixture with another compound) was tested, and the T/C (dose: 6.25 mg/kg/injection, schedule: Q04DX003 (ip), vehicle: water) was 97 % of control, the T/C (dose: 12.5 mg/kg/injection, schedule: Q04DX003 (ip), vehicle: water) was 101 % of control and the T/C (dose: 25.0 mg/kg/injection, schedule: Q04DX003 (ip), vehicle: water) was 99 % of control. The T/C (dose: 50.0 mg/kg/injection, schedule: Q04DX003 (ip), vehicle: water) was 101 % of control and the T/C [7] was 91 % of control.
In the case of `NC(CC(=O)O)c1nn[nH]n1` (configuration not stated), the T/C [6] is reported as 95 % of control, the T/C [2] is reported as 95 % of control and the T/C (dose: 400.0 mg/kg/injection, schedule: Q01DX009 (ip), vehicle: saline with Tween-80) is reported as 100 % of control.
For `CCCCCC1c2c(cc(C)[nH]c2=O)OC(O)C1CCCC` (configuration not stated), the T/C [5] was 93 % of control, the T/C [6] was 90 % of control and the T/C [2] was 94 % of control.
For `O=C1c2ccccc2C(=O)c2c(Nc3ccc(CCO)cc3)ccc(O)c21`, the T/C (dose: 100.0 mg/kg/injection, schedule: Q04DX003 (ip), vehicle: Klucel (hydroxypropylcellulose) (HPC)) was 100 % of control, the T/C (dose: 200.0 mg/kg/injection, schedule: Q04DX003 (ip), vehicle: Klucel (hydroxypropylcellulose) (HPC)) was 100 % of control and the T/C (dose: 400.0 mg/kg/injection, schedule: Q04DX003 (ip), vehicle: Klucel (hydroxypropylcellulose) (HPC)) was 111 % of control.
`[N-]=[N+]=Nc1ccc(Cl)cc1C(=O)c1ccccc1` was tested, and the T/C [10] was 104 % of control, the T/C [8] was 90 % of control and the T/C [9] was 109 % of control.
With `Nc1nc2ncc(CN(CCS(=O)(=O)F)c3ccc(C(=O)NC(CCC(=O)O)C(=O)O)cc3)nc2c(=O)[nH]1` (configuration not stated) the T/C (dose: 50.0 mg/kg/injection, schedule: Q04DX003 (ip), vehicle: sodium bicarbonate) was 105 % of control, the T/C (dose: 100.0 mg/kg/injection, schedule: Q04DX003 (ip), vehicle: sodium bicarbonate) was 99 % of control and the T/C (dose: 200.0 mg/kg/injection, schedule: Q04DX003 (ip), vehicle: sodium bicarbonate) was 94 % of control.
